According to patent publication US20260028365A1 (BIOGEN MA INC., priority 2022, published 2026):
Read-outs that look alike come from different tables or passages of the source.

How the values were obtained:
[1] = target: Tyk2 (Homo sapiens (Human), UniProt P29597); test: pSTAT4 Cell Assay (MSD, NK92 cells); type: cell-based
[2] = target: JH2 domain of human Tyk2 (Homo sapiens (Human), UniProt P29597); test: JH2 Biochemical Assay (TR-FRET probe displacement); type: binding
[3] = TR-FRET probe displacement, JH2 domain of human Tyk2
[4] = JH2 domain of human Tyk2, TR-FRET probe displacement
[5] = TR-FRET probe displacement, JH2 domain

Sequence of JH2 domain of human Tyk2 (P29597 575-876): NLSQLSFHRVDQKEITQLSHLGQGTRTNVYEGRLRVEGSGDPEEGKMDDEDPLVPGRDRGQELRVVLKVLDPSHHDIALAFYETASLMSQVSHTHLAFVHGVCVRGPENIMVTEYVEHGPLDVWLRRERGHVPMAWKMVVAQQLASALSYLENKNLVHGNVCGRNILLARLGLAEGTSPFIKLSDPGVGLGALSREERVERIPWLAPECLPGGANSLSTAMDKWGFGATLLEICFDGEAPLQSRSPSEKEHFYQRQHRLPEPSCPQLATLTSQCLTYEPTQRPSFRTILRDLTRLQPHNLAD
Sequence of Tyk2 (P29597 whole entry, the tested form may be a part): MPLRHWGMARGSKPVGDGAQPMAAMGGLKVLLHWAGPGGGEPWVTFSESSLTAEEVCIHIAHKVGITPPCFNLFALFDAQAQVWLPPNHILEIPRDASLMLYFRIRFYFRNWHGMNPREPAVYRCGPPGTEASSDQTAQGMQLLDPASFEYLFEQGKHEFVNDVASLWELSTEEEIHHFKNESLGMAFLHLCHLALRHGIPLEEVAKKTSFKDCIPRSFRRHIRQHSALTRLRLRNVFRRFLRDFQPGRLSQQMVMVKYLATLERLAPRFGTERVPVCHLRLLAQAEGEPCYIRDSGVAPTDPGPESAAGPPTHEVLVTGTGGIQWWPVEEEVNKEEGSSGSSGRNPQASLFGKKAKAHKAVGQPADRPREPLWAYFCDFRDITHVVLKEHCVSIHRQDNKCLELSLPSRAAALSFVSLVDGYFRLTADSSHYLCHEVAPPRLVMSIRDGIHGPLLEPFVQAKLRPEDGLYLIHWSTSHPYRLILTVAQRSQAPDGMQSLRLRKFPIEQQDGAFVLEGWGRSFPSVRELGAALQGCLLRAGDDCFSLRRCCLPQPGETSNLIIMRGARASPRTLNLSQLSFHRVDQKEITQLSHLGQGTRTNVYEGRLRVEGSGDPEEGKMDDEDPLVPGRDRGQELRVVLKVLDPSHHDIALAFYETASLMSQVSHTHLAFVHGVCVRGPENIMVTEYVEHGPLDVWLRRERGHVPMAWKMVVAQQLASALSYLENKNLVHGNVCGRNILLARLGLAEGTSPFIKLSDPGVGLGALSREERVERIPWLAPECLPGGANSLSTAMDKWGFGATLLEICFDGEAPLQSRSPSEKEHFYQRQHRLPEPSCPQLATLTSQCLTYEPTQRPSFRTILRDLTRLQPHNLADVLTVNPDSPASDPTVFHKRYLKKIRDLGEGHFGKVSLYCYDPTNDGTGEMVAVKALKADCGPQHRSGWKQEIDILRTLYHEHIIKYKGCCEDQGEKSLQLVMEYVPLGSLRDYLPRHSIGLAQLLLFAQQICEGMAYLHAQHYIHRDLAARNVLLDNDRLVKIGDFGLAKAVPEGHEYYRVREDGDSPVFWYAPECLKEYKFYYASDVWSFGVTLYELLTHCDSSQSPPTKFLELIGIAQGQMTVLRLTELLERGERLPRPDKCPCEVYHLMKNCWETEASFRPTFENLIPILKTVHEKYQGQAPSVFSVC

Compound | IC50 ([1]; MSD) [nM] | IC50 [2, 3] [nM] | IC50 [2, 4] [nM] | IC50 [1] [nM] | IC50 [2, 5] [nM]
CC(=O)Nc1cc(Nc2cc(C)nc(C(C)(F)F)n2)c(-c2cc(OC(C)C)ncn2)cn1 [Example 242, N-(4-((2-(1,1-difluoroethyl)-6-methylpyrimidin-4-yl)amino)-5-(6-isopropoxypyrimidin-4-yl)pyridin-2-yl)acetamide] | 10 to 100 | ≤ 10 | – | – | –
CC(=O)Nc1cc(Nc2cc(C)nc(C(C)(F)F)n2)c(-c2cnn(C(C)C)n2)cn1 [Example 610, N-(4-((2-(1,1-difluoroethyl)-6-methylpyrimidin-4-yl)amino)-5-(2-isopropyl-2H-1,2,3-triazol-4-yl)pyridin-2-yl)acetamide] | ≤ 10 | – | ≤ 10 | – | –
CC(=O)Nc1cc(Nc2cc(C)nc(C(C)(F)F)n2)c(OC2CC2)cn1 [Example 45, N-(5-cyclopropoxy-4-((2-(1,1-difluoroethyl)-6-methylpyrimidin-4-yl)amino)pyridin-2-yl)acetamide] | 10 to 100 | ≤ 10 | – | – | –
CC(=O)Nc1cc(Nc2cc(C)nc(C(C)(F)F)n2)c(-c2ncc(CN(C)C)s2)cn1 [Example 737, N-(4-((2-(1,1-difluoroethyl)-6-methylpyrimidin-4-yl)amino)-5-(5-((dimethylamino)methyl)thiazol-2-yl)pyridin-2-yl)acetamide] | ≤ 10 | – | ≤ 10 | – | –
COc1cnc(NC(C)=O)cc1Nc1cc(-c2cnc(N3CCOCC3)nc2)nc(C(C)(F)F)n1 [Example 390, N-(4-((2-(1,1-difluoroethyl)-2′-morpholino-[4,5′-bipyrimidin]-6-yl)amino)-5-methoxypyridin-2-yl)acetamide] | 100 to 1000 | – | 10 to 100 | – | –
CCOc1cnc(NC(C)=O)cc1Nc1cc(OC2CC(C)(O)C2)nc(C(C)(F)F)n1 (centres unmarked) [Example 53, N-(4-((2-(1,1-difluoroethyl)-6-(3-hydroxy-3-methylcyclobutoxy)pyrimidin-4-yl)amino)-5-ethoxypyridin-2-yl)acetamide] | 10 to 100 | ≤ 10 | – | – | –
COc1cnc(NC(C)=O)cc1Nc1cc(-c2cnn(CCN(C)C)c2)nc(C(C)(F)F)n1 [Example 380, N-(4-((2-(1,1-difluoroethyl)-6-(1-(2-(dimethylamino)ethyl)-1H-pyrazol-4-yl)pyrimidin-4-yl)amino)-5-methoxypyridin-2-yl)acetamide] | 10 to 100 | – | ≤ 10 | – | –
CCc1cc(Nc2cc(NC(C)=O)ncc2-c2cnn(CCOC)n2)nc(C(C)(F)F)n1 [Example 261, N-(4-((2-(1,1-difluoroethyl)-6-ethylpyrimidin-4-yl)amino)-5-(2-(2-methoxyethyl)-2H-1,2,3-triazol-4-yl)pyridin-2-yl)acetamide] | ≤ 10 | ≤ 10 | – | – | –
CC(=O)Nc1cc(Nc2ccnc(C(C)(F)F)n2)c(-c2cnc(N3CCOCC3)cn2)cn1 [Example 844, N-(4-((2-(1,1-difluoroethyl)pyrimidin-4-yl)amino)-5-(5-morpholinopyrazin-2-yl)pyridin-2-yl)acetamide] | – | – | – | 10 to 100 | ≤ 10
CC(=O)Nc1cc(Nc2cc(C)nc(C(C)(F)F)n2)c(-c2nc(C)co2)cn1 [Example 592, N-(4-((2-(1,1-difluoroethyl)-6-methylpyrimidin-4-yl)amino)-5-(4-methyloxazol-2-yl)pyridin-2-yl)acetamide] | 10 to 100 | – | ≤ 10 | – | –
C=C(F)c1cncc(Nc2cc(NC(C)=O)ncc2OCCOC)n1 [Example 90, N-(4-((6-(1-fluorovinyl)pyrazin-2-yl)amino)-5-(2-methoxyethoxy)pyridin-2-yl)acetamide] | 100 to 1000 | ≤ 10 | – | – | –
CC(=O)Nc1cc(Nc2ccnc(C(C)(F)F)n2)c(-c2ccc(CN3C[C@H]4C[C@@H](C3)O4)cn2)cn1 [Example 702, N-(5-(((1R,5S)-6-oxa-3-azabicyclo[3.1.1]heptan-3-yl)methyl)-4′-((2-(1,1-difluoroethyl)pyrimidin-4-yl)amino)-[2,3′-bipyridin]-6′-yl)acetamide] | ≤ 10 | – | ≤ 10 | – | –
CCOc1cnc(NC(=O)CCOC)cc1Nc1cc(C)nc(C(C)(F)F)n1 [Example 27, N-(4-((2-(1,1-difluoroethyl)-6-methylpyrimidin-4-yl)amino)-5-ethoxypyridin-2-yl)-3-methoxypropanamide] | 100 to 1000 | ≤ 10 | – | – | –
CCc1cc(Nc2cc(NC(C)=O)ncc2O[C@H]2C[C@@H](F)C2)nc(C(C)(F)F)n1 [Example 413, N-(4-((2-(1,1-difluoroethyl)-6-ethylpyrimidin-4-yl)amino)-5-((1s,3s)-3-fluorocyclobutoxy)pyridin-2-yl)acetamide] | ≤ 10 | – | ≤ 10 | – | –
CCc1nnc(-c2cnc(NC(C)=O)cc2Nc2ccnc(C(C)(F)F)n2)s1 [Example 714, N-(4-((2-(1,1-difluoroethyl)pyrimidin-4-yl)amino)-5-(5-ethyl-1,3,4-thiadiazol-2-yl)pyridin-2-yl)acetamide] | ≤ 10 | – | ≤ 10 | – | –
COCCn1nccc1-c1cnc(NC(C)=O)cc1Nc1cc(C)nc(C(C)(F)F)n1 [Example 258, N-(4-((2-(1,1-difluoroethyl)-6-methylpyrimidin-4-yl)amino)-5-(1-(2-methoxyethyl)-1H-pyrazol-5-yl)pyridin-2-yl)acetamide] | 100 to 1000 | 100 to 1000 | – | – | –

Compound | IC50 ([1]; MSD) [nM] | IC50 [2, 3] [nM] | IC50 [2, 4] [nM] | IC50 [1] [nM] | IC50 [2, 5] [nM]
COCc1nsc(-c2cnc(NC(C)=O)cc2Nc2cc(C)nc(C(C)(F)F)n2)n1 [Example 762, N-(4-((2-(1,1-difluoroethyl)-6-methylpyrimidin-4-yl)amino)-5-(3-(methoxymethyl)-1,2,4-thiadiazol-5-yl)pyridin-2-yl)acetamide] | – | – | – | ≤ 10 | ≤ 10
CCOCCOc1cnc(NC(C)=O)cc1Nc1cc(C)nc(C(C)(F)F)n1 [Example 507, N-(4-((2-(1,1-difluoroethyl)-6-methylpyrimidin-4-yl)amino)-5-(2-ethoxyethoxy)pyridin-2-yl)acetamide] | ≤ 10 | – | ≤ 10 | – | –
CC(=O)Nc1cc(Nc2cc(C)nc(C(C)(F)F)n2)c(-n2cc(C#N)cn2)cn1 [Example 733, N-(5-(4-cyanO1H-pyrazol-1-yl)-4-((2-(1,1-difluoroethyl)-6-methylpyrimidin-4-yl)amino)pyridin-2-yl)acetamide] | 100 to 1000 | – | ≤ 10 | – | –
CC(=O)Nc1cc(Nc2cc(C)nc(C(C)(F)F)n2)c(OCC(F)F)cn1 [Example 24, N-(5-(2,2-difluoroethoxy)-4-((2-(1,1-difluoroethyl)-6-methylpyrimidin-4-yl)amino)pyridin-2-yl)acetamide] | 10 to 100 | ≤ 10 | – | – | –
[2H]C([2H])([2H])C(=O)Nc1cc(Nc2ccnc(C(C)(F)F)n2)c(-c2ccc(OC)nn2)cn1 [Example 527, N-(4-((2-(1,1-difluoroethyl)pyrimidin-4-yl)amino)-5-(6-methoxypyridazin-3-yl)pyridin-2-yl)acetamide-2,2,2-d3] | ≤ 10 | – | ≤ 10 | – | –
CCc1cnc(NC(C)=O)cc1Nc1cc(C)nc(C(C)(F)F)n1 [Example 42, N-(4-((2-(1,1-difluoroethyl)-6-methylpyrimidin-4-yl)amino)-5-ethylpyridin-2-yl)acetamide] | ≥ 1000 | 10 to 100 | – | – | –
COc1cc(Nc2cc(NC(C)=O)ncc2-c2ncc(F)cn2)nc(C(C)(F)F)n1 [Example 192, N-(4-((2-(1,1-difluoroethyl)-6-methoxypyrimidin-4-yl)amino)-5-(5-fluoropyrimidin-2-yl)pyridin-2-yl)acetamide] | 10 to 100 | ≤ 10 | – | – | –
CC(=O)Nc1cc(Nc2cc(C)nc(C(C)(F)F)n2)c(-c2cn3c(n2)CCC3)cn1 [Example 769, N-(4-((2-(1,1-difluoroethyl)-6-methylpyrimidin-4-yl)amino)-5-(6,7-dihydrO5H-pyrrolo[1,2-a]imidazol-2-yl)pyridin-2-yl)acetamide] | – | – | – | ≤ 10 | ≤ 10
COCCn1cnc(-c2cnc(NC(C)=O)cc2Nc2cc(C)nc(C(C)(F)F)n2)cc1=O [Example 250, N-(4-((2-(1,1-difluoroethyl)-6-methylpyrimidin-4-yl)amino)-5-(1-(2-methoxyethyl)-6-oxo-1,6-dihydropyrimidin-4-yl)pyridin-2-yl)acetamide] | 100 to 1000 | ≤ 10 | – | – | –
COc1nccc(-c2cnc(NC(C)=O)cc2Nc2ccnc(C(C)(F)F)n2)n1 [Example 178, N-(4-((2-(1,1-difluoroethyl)pyrimidin-4-yl)amino)-5-(2-methoxypyrimidin-4-yl)pyridin-2-yl)acetamide] | ≤ 10 | ≤ 10 | – | – | –
CC(=O)Nc1cc(Nc2cc(C)nc(C(C)(F)F)n2)c(-c2ccc(S(C)(=O)=O)cn2)cn1 [Example 543, N-(4′-((2-(1,1-difluoroethyl)-6-methylpyrimidin-4-yl)amino)-5-(methylsulfonyl)-[2,3′-bipyridin]-6′-yl)acetamide] | ≤ 10 | – | ≤ 10 | – | –
CC(=O)Nc1cc(Nc2ccnc(C(C)(F)F)n2)c(-c2nc(C)ns2)cn1 [Example 716, N-(4-((2-(1,1-difluoroethyl)pyrimidin-4-yl)amino)-5-(3-methyl-1,2,4-thiadiazol-5-yl)pyridin-2-yl)acetamide] | 10 to 100 | – | ≤ 10 | – | –
COCCN(C)c1cnc(-c2cnc(NC(C)=O)cc2Nc2ccnc(C(C)(F)F)n2)cn1 [Example 866, N-(4-((2-(1,1-difluoroethyl)pyrimidin-4-yl)amino)-5-(5-((2-methoxyethyl)(methyl)amino)pyrazin-2-yl)pyridin-2-yl)acetamide] | – | – | – | 10 to 100 | ≤ 10
CNC(=O)Nc1cc(Nc2ccnc(C(C)(F)F)n2)c(-c2cc3n(n2)CCN(C)C3)cn1 [Example 794, 1-(4-((2-(1,1-difluoroethyl)pyrimidin-4-yl)amino)-5-(5-methyl-4,5,6,7-tetrahydropyrazolo[1,5-a]pyrazin-2-yl)pyridin-2-yl)-3-methylurea] | – | – | – | ≤ 10 | ≤ 10
CC(=O)Nc1cc(Nc2ccnc(C(C)(F)F)n2)c(-c2ccnc(C)n2)cn1 [Example 173, N-(4-((2-(1,1-difluoroethyl)pyrimidin-4-yl)amino)-5-(2-methylpyrimidin-4-yl)pyridin-2-yl)acetamide] | ≤ 10 | ≤ 10 | – | – | –
